The record followed here is patent EP3189848B1, “A COMPOSITION COMPRISING TRIPEPTIDES FOR THE TREATMENT OF DISEASES OF THE JOINTS AND THE SPINE” (Zamerton Holdings Limited, priority 2014, dated 2016).

Holding throughout (assay type): in vivo
Assay [1] has as its system rats with experimental arthritis. In words: Primary connective tissue metabolites in blood serum, rat model of systemic steroid (dexamethasone) arthritis. To be noted: Day 56, daily i.m. 4 weeks, 50 mg/kg. An excerpt: Example 2. A study of the chondroprotective activity of a composition comprising peptides Lys-Asp-Glu, Ala-Asp-Glu, Asp-Glu-Gly, and an agent comprising peptides Lys-Asp-Glu, Ala-Asp-Glu, Asp-Glu-Gly and chondroitin sulfate and/or glucosamine sulfate using a rat-based model of systemic steroid arthritis.
Lyophilized powder consisting of peptides Lys-Asp-Glu, Ala-Asp-Glu, Asp-Glu-Gly was used to obtain the preparation for intramuscular injections.
The daily dose of the composition comprising peptides Lys-Asp-Glu, Ala-Asp-Glu, Asp-Glu-Gly was 50 µg/kg (at a weight ratio of the peptides of 1:1:1), 150 µg/kg (at a weight ratio of the peptides of 1:2:1), 300 µg/kg (at a weight ratio of the peptides of 0.1:1:10) or 600 µg/kg (at a weight ratio of the peptides of 1:1:3).
The daily dose of the composition comprising peptides Lys-Asp-Glu, Ala-Asp-Glu, Asp-Glu-Gly and glucosamine sulfate or chondroitin sulfate was 150 µg/kg of the peptides (at a weight ratio of the peptides of 1:2:1) and 50 mg/kg of glucosamine sulfate or chondroitin sulfate, or 300 µg/kg of the peptides (at a weight ratio of the peptides of 0.1:1:10) and 50 mg/kg of glucosamine sulfate or chondroitin sulfate, or 600 µg/kg of the peptides (at a weight ratio of the peptides of 1:1:3) and 50 mg/kg of glucosamine sulfate or chondroitin sulfate. […]
The study was conducted using white outbred male rats 4-5 months of age weighing 250-300 g obtained from the same litter (same age and weight, with normal primary clinical and biochemical analyses parameters). […] The first signs of the arthropathy were detected as early as week 2 of the experiment.
Starting from day 28 of the experiment, all animals received corresponding intramuscular doses of the preparations on a daily basis over 4 weeks. The degree of activity of the pathological process was evaluated using biochemical blood test parameters. […]
Clinical observation of the animals was implemented throughout the study; the functional state of the rat joints was monitored (degree of mobility, resistance to stress, swelling, hyperaemia). […]

Assay [2] concerns articular cartilages of the knee joints of the rats. In words: Histomorphological and morphometric study of the articular cartilages of the knee joints (light microscopy, scoring system). As for the experimental part:
The study was conducted using white outbred male rats 4-5 months of age weighing 250-300 g obtained from the same litter (same age and weight, with normal primary clinical and biochemical analyses parameters). Modeling of steroid arthritis was achieved by three single intramuscular injections of dexamethasone administered at an interval of 1 week at a dose of 7 mg/kg. The first signs of the arthropathy were detected as early as week 2 of the experiment.
Starting from day 28 of the experiment, all animals received corresponding intramuscular doses of the preparations on a daily basis over 4 weeks. The degree of activity of the pathological process was evaluated using biochemical blood test parameters. The following biochemical parameters were used as the parameters for evaluation of the intensity of progression of the pathological process in the experimental groups: the contents of sialic acids, glycoproteins, and chondroitin sulfates in the serum, as these parameters reflect the intensity of progression of the degenerative-dystrophic processes in the connective tissue.
Clinical observation of the animals was implemented throughout the study; the functional state of the rat joints was monitored (degree of mobility, resistance to stress, swelling, hyperaemia). The animals were decapitated under ether anesthesia at the end of the study (on day 56) to harvest biomaterials for biochemical and histomorphological studies.
In order to investigate the chondroprotective activity of the composition, a study of the condition of the morpho- and ultrastructure of the articular cartilages of the knee joints of the rats was carried out on day 56 of the experiment.
The histomorphological investigation of the articular cartilages was carried out using standard light microscopy techniques.
The morphometric measurements were carried out using an ocular micrometer: the cartilage thickness was determined using slide mounts; the measurements were taken at 3 individual points - the central part of the head, and the upper and lower edges. The thickness of the articular cartilages was expressed in conventional units. The density of chondrocytes per conventional unit area was also estimated. Statistical processing of the digital data obtained was performed using Student's t-test and non-parametric methods of analysis (Mann-Whitney U Test). […]

For assay [3], the system named is articular cartilages of rats with experimental arthritis. Nature of the assay: Electron microscopic study of the ultrastructure of the articular cartilages. The following applies: 50 mg/kg. The protocol:
The study of the ultrastructure of the articular cartilages of the rats was performed using conventional electron microscopy techniques.

Assay [4] deals with patients with degenerative-dystrophic diseases of the joints. Nature of the assay: Clinical administration to patients with joint disease (first group). To be noted: 500 mg, tablets twice a day three weeks then once daily. As for the experimental part:
(§1) Example 3. Administration of the peptide composition and the peptide composition in combination with glucosamine sulfate and/or chondroitin sulfate to patients with degenerative-dystrophic diseases of the joints and the spine.
(§2) The studies were carried out in a group patients aged 40 - 65 years.
The first group (50 patients) was characterized by stiffness in the joints, as well as puffiness or swelling in the joints, which was manifested in the appearance of pain of varying intensity and duration.
A total of 15 patients in the first group were exposed to the peptide composition administered at a dose of 150 µg; 7 patients received glucosamine sulfate at a dose of 500 mg; 10 patients were treated with the composition of the peptides administered at a dose of 150 µg, glucosamine sulfate at a dose of 500 mg, and chondroitin sulfate at a dose of 50 mg; and 18 patients received the composition of the peptides administered at a dose of 150 µg and glucosamine sulfate at a dose of 500 mg in the form of tablets twice a day over the first three weeks and then once daily for up to 6 months. A sustained therapeutic effect associated with administration of glucosamine sulfate was achieved after at least 6 months of therapy. […]

Assay [5] deals with patients with degenerative process occurring in the intervertebral joints and intervertebral discs. Nature of the assay: Clinical administration to patients with degenerative process of the spine (second group). The following applies: 50 mg intramuscularly daily, 30 injections. As for the experimental part:
as §1, §2
The second group (30 patients) was characterized by the degenerative process occurring in the intervertebral joints and intervertebral discs accompanied by deformation of the intervertebral discs and formation of osteophytes, which was manifested in the appearance of pain of varying intensity and duration.
A total of 10 patients in the second group received the peptide composition at a dose of 300 µg; 9 patients received glucosamine sulfate at a dose of 50 mg; and 11 patients received the composition of the peptides at a dose of 300 µg and glucosamine sulfate at a dose of 50 mg administered intramuscularly on a daily basis. The treatment course comprised 30 injections. A therapeutic effect associated with administration of glucosamine sulfate was achieved after at least 1 month of therapy. […]

Each structure is given as a SMILES string.

Regarding `N[C@H]1C(O)O[C@H](CO)[C@@H](O)[C@@H]1O.O=S(=O)(O)O` (stereo partly shown) [Glucosamine sulfate], in assay [1], the Chondroitin sulfate was found to be 0.400 ± 0.027 g/L, the Glycoproteins amounted to 3.59 ± 0.29 g/L and the Sialic acids was found to be 4.27 ± 0.34 mmol/L. In addition, the “morphology of the joints (slide mounts)” value in assay [2] (50 mg/kg) is “improvement of the morphology in comparison to the control pathology animal group”. In assay [2] (day 56, 50 mg/kg), the Cartilage thickness was found to be 14.10±1.06 conventional units, the “Cell density per conventional unit area” value stood at 23.79±1.80 and the “Total score according to the cartilage condition evaluation system” value stood at 16.2±1.3. Besides, in assay [3], the “ultrastructure of the cartilages” value is reported as “normalization of the ultrastructure of the cartilages accompanied by moderate degenerative-dystrophic manifestations in chondrocytes”. Besides, the “therapy duration until sustained therapeutic effect” value in assay [4] is listed as “at least 6 months”. Further, the “therapy duration until therapeutic effect” value in assay [5] was “at least 1 month”.
